{"source": "ChEMBL document CHEMBL4364252", "about": "“Tetrahydropyrazolo[1,5-a]pyridine-fused steroids and their in vitro biological evaluation in prostate cancer” (2019)", "key": {"LNCaP [1]": {"tested_on": "LNCaP", "experiment": "Antiproliferative activity against AR-positive human LNCAP cells assessed as cell viability at 40 uM measured after 72 hrs by resazurin dye based fluorescence assay relative to control", "assay_type": "functional", "settings": "read-out: Activity"}, "PC-3 [2]": {"tested_on": "PC-3", "experiment": "Antiproliferative activity against AR-negative human PC3 cells assessed as growth inhibition measured after 72 hrs by resazurin dye based fluorescence assay", "assay_type": "functional", "settings": "PC-3, 72 h"}, "VCaP [3]": {"tested_on": "VCaP", "experiment": "Induction of apoptosis in AR-positive human VCaP cells assessed as cleaved PARP level at 5 to 20 uM after 24 hrs by immunoblot analysis", "assay_type": "functional, cell-based"}, "CWR22R [4]": {"tested_on": "CWR22R", "experiment": "Induction of apoptosis in R1881-activated AR-positive human 22Rv1 cells harboring ARE14 construct assessed as cleaved PARP level at 5 to 20 uM after 24 hrs by immunoblot analysis", "assay_type": "functional, cell-based"}, "LAPC4 [5]": {"tested_on": "LAPC4", "experiment": "Antiproliferative activity against AR-positive human LAPC4 cells assessed as cell viability at 40 uM measured after 72 hrs by resazurin dye based fluorescence assay relative to control", "assay_type": "functional", "settings": "LAPC4, 72 h, read-out: Activity"}, "[6]": {"biological_target": "T1, Androgen receptor (Homo sapiens) (UniProt P10275)", "T1 sequence (whole entry)": "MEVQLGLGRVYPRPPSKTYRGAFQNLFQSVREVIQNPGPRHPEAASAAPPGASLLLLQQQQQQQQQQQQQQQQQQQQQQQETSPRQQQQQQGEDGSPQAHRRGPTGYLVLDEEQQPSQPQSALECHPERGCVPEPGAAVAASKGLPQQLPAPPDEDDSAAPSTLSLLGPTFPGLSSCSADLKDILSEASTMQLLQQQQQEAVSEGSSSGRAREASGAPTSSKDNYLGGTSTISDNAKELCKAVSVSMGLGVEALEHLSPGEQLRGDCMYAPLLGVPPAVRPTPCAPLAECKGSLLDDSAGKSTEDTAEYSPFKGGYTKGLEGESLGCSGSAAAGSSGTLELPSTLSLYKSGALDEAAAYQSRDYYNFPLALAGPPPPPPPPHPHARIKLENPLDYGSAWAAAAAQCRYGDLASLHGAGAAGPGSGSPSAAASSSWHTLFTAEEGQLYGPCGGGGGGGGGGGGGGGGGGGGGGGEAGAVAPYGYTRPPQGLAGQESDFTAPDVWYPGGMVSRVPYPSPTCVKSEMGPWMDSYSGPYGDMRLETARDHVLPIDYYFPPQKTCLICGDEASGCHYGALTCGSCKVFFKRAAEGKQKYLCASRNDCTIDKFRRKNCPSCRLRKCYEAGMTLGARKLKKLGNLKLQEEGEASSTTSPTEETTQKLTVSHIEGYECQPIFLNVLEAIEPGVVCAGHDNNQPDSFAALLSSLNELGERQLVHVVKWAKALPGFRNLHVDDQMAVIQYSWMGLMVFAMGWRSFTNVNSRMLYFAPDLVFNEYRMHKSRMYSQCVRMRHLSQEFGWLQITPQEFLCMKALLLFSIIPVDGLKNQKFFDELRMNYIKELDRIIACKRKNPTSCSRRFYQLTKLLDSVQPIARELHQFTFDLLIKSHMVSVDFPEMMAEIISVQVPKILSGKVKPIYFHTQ", "experiment": "Inhibition of AR transcriptional activity in AR-positive human VCaP cells assessed as decrease in PSA protein expression at 20 uM after 48 hrs by immunoblot analysis", "assay_type": "cell-based"}, "LNCaP [7]": {"tested_on": "LNCaP", "experiment": "Antiproliferative activity against AR-positive human LNCAP cells assessed as growth inhibition measured after 72 hrs by resazurin dye based fluorescence assay", "assay_type": "functional"}, "[8]": {"biological_target": "T1, Androgen receptor (Homo sapiens)", "experiment": "Inhibition of AR transcriptional activity in AR-positive human VCaP cells assessed as decrease in NKX3.1 protein expression at 20 uM upto 72 hrs by immunoblot analysis", "assay_type": "cell-based"}, "[9]": {"biological_target": "T1, Androgen receptor (Homo sapiens)", "settings": "at 10 µM", "description": "Inhibition of AR transcriptional activity in AR-positive human 22Rv1 cells harboring ARE14 construct assessed as suppression of PSA expression at 10 uM after 24 hrs by immunoblot analysis"}, "PC-3 [10]": {"tested_on": "PC-3", "experiment": "Antiproliferative activity against AR-negative human PC3 cells assessed as cell viability at 40 uM measured after 72 hrs by resazurin dye based fluorescence assay relative to control", "assay_type": "functional", "settings": "PC-3, 72 h, read-out: Activity"}, "VCaP [11]": {"tested_on": "VCaP", "experiment": "Antiproliferative activity against AR-positive human VCaP cells assessed as growth inhibition measured after 72 hrs by resazurin dye based fluorescence assay", "assay_type": "functional"}, "CWR22R [12]": {"tested_on": "CWR22R", "experiment": "Antiproliferative activity against AR-positive human 22Rv1 cells harboring ARE14 construct assessed as cell viability at 40 uM measured after 72 hrs by resazurin dye based fluorescence assay relative to control", "assay_type": "functional", "settings": "22Rv1, 72 h, read-out: Activity"}, "[13]": {"biological_target": "T1, Androgen receptor (Homo sapiens)", "experiment": "Inhibition of R1881 induced-AR transcriptional activity in AR-positive human 22Rv1 cells harboring ARE14 construct assessed as luciferase activity at 10 uM after 24 hrs by luciferase assay relative to control", "design": "scale not given: the % may be the effect or the level left"}, "CWR22R [14]": {"tested_on": "CWR22R", "experiment": "Antiproliferative activity against human AR-positive 22Rv1 cells harboring ARE14 construct assessed as growth inhibition measured after 72 hrs by resazurin dye based fluorescence assay", "assay_type": "functional", "settings": "22Rv1, 72 h"}, "[15]": {"biological_target": "T1, Androgen receptor (Homo sapiens)", "experiment": "Inhibition of AR transcriptional activity in AR-positive human VCaP cells assessed as PSA protein expression at 5 to 20 uM after 24 hrs by immunoblot analysis", "assay_type": "cell-based"}, "[16]": {"biological_target": "T1, Androgen receptor (Homo sapiens)", "experiment": "Inhibition of AR transcriptional activity in AR-positive human VCaP cells assessed as NKX3.1 protein expression at 5 to 20 uM after 24 hrs by immunoblot analysis", "assay_type": "cell-based"}, "CWR22R [17]": {"tested_on": "CWR22R", "experiment": "Inhibition of colony formation in AR-positive human 22Rv1 cells harboring ARE14 construct at 1.25 to 20 uM incubated for 10 days by crystal violet staining", "assay_type": "functional, cell-based"}, "CWR22R [18]": {"tested_on": "CWR22R", "experiment": "Effect on AR-V7 variant protein expression in AR-positive human 22Rv1 cells harboring ARE14 construct at 10 uM after 24 hrs by immunoblot analysis", "assay_type": "functional, cell-based"}, "[19]": {"biological_target": "T1, Androgen receptor (Homo sapiens)", "experiment": "Inhibition of R1881 induced-AR transcriptional activity in AR-positive human 22Rv1 cells harboring ARE14 construct after 24 hrs by luciferase assay"}, "[20]": {"biological_target": "T1, Androgen receptor (Homo sapiens)", "settings": "at 10 µM", "remark": "listed apart in the source", "description": "Inhibition of AR transcriptional activity in AR-positive human 22Rv1 cells harboring ARE14 construct assessed as suppression of NKX3.1 expression at 10 uM after 24 hrs by immunoblot analysis"}, "VCaP [21]": {"tested_on": "VCaP", "experiment": "Antiproliferative activity against AR-positive human VCaP cells assessed as cell viability at 40 uM measured after 72 hrs by resazurin dye based fluorescence assay relative to control", "assay_type": "functional", "settings": "read-out: Activity"}, "LAPC4 [22]": {"tested_on": "LAPC4", "experiment": "Antiproliferative activity against AR-positive human LAPC4 cells assessed as growth inhibition measured after 72 hrs by resazurin dye based fluorescence assay", "assay_type": "functional", "settings": "LAPC4, 72 h"}, "LNCaP [23]": {"tested_on": "LNCaP", "experiment": "Antiproliferative activity against AR-positive human LNCAP cells assessed as cell viability at 10 uM measured after 72 hrs by resazurin dye based fluorescence assay relative to control", "assay_type": "functional", "settings": "read-out: Activity"}, "PC-3 [24]": {"tested_on": "PC-3", "experiment": "Antiproliferative activity against AR-negative human PC3 cells assessed as cell viability at 10 uM measured after 72 hrs by resazurin dye based fluorescence assay relative to control", "assay_type": "functional", "settings": "PC-3, 72 h, read-out: Activity"}, "LAPC4 [25]": {"tested_on": "LAPC4", "experiment": "Antiproliferative activity against AR-positive human LAPC4 cells assessed as cell viability at 10 uM measured after 72 hrs by resazurin dye based fluorescence assay relative to control", "assay_type": "functional", "settings": "LAPC4, 72 h, read-out: Activity"}, "VCaP [26]": {"tested_on": "VCaP", "experiment": "Antiproliferative activity against AR-positive human VCaP cells assessed as cell viability at 10 uM measured after 72 hrs by resazurin dye based fluorescence assay relative to control", "assay_type": "functional", "settings": "read-out: Activity"}, "CWR22R [27]": {"tested_on": "CWR22R", "experiment": "Antiproliferative activity against AR-positive human 22Rv1 cells harboring ARE14 construct assessed as cell viability at 10 uM measured after 72 hrs by resazurin dye based fluorescence assay relative to control", "assay_type": "functional", "settings": "22Rv1, 72 h, read-out: Activity"}}, "note": "The source made the active and inactive calls. The calls are words filed in the database; no cut-off is given here."}
{"smiles": "COC(=O)c1cnn2c1C[C@]1(C(C)=O)[C@@H](C[C@H]3[C@@H]4CCC5=CC(=O)CC[C@]5(C)[C@H]4CC[C@@]31C)C2", "values": [{"measurement": "viability at 40 µM", "setting": "LNCaP [1]", "result": 77.3, "unit": "%"}, {"measurement": "GI50", "setting": "PC-3 [2]", "result": "> 40", "unit": "µM"}, {"measurement": "Activity", "setting": "VCaP [3]", "result": "Active"}, {"measurement": "Activity", "setting": "CWR22R [4]", "result": "Active"}, {"measurement": "viability at 40 µM", "setting": "LAPC4 [5]", "result": 95.1, "unit": "%"}, {"measurement": "inhibition", "setting": "[6]", "result": "Active"}, {"measurement": "GI50", "setting": "LNCaP [7]", "result": "> 40", "unit": "µM"}, {"measurement": "inhibition", "setting": "[8]", "result": "Active"}, {"measurement": "inhibition", "setting": "[9]", "result": "Active"}, {"measurement": "viability at 40 µM", "setting": "PC-3 [10]", "result": 98.3, "unit": "%"}, {"measurement": "GI50", "setting": "VCaP [11]", "result": "> 40", "unit": "µM"}, {"measurement": "viability at 40 µM", "setting": "CWR22R [12]", "result": 80.4, "unit": "%"}, {"measurement": "Activity", "setting": "[13]", "result": 40, "unit": "%"}, {"measurement": "GI50", "setting": "CWR22R [14]", "result": "> 40", "unit": "µM"}, {"measurement": "inhibition", "setting": "[15]", "result": "inactive"}, {"measurement": "inhibition", "setting": "[16]", "result": "inactive"}, {"measurement": "inhibition", "setting": "CWR22R [17]", "result": "Active"}, {"measurement": "Activity", "setting": "CWR22R [18]", "result": "inactive"}, {"measurement": "inhibition", "setting": "[19]", "result": "Dose-dependent effect"}, {"measurement": "inhibition", "setting": "[20]", "result": "Active"}, {"measurement": "viability at 40 µM", "setting": "VCaP [21]", "result": 85.1, "unit": "%"}, {"measurement": "GI50", "setting": "LAPC4 [22]", "result": "> 40", "unit": "µM"}]}
{"smiles": "C[C@]12CC[C@H](O)CC1=CC[C@@H]1[C@@H]2CC[C@]2(C)C(n3cnc4ccccc43)=CC[C@@H]12", "note": "[GALETERONE]", "values": [{"measurement": "viability at 10 µM", "setting": "LNCaP [23]", "result": 91.6, "unit": "%"}, {"measurement": "Activity", "setting": "VCaP [3]", "result": "Active"}, {"measurement": "Activity", "setting": "CWR22R [4]", "result": "Active"}, {"measurement": "viability at 10 µM", "setting": "PC-3 [24]", "result": "> 100", "unit": "%"}, {"measurement": "viability at 10 µM", "setting": "LAPC4 [25]", "result": 92.8, "unit": "%"}, {"measurement": "viability at 10 µM", "setting": "VCaP [26]", "result": 72.9, "unit": "%"}, {"measurement": "viability at 10 µM", "setting": "CWR22R [27]", "result": "> 100", "unit": "%"}]}
